For 31 molecules, GI50 and TGI results are on record in PubChem BioAssay (NCI).

As a reminder, the GI50 is the concentration that inhibits growth by half. A word on the TGI: it is the concentration giving total growth inhibition. A high value points to less potent growth arrest.

Molecules are shown by their SMILES. Several values for one entry are separate records, joined by “and”; a condition that tells them apart may be missing. Identical values can stand only once.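 Each compound was tested at five concentrations against cells in 96-well plates for 48 hours. GI50: concentration for 50% inhibition of growth. Definition used: TGI = concentration required for complete inhibition of growth.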 Some results are limits rather than exact numbers.

This assay deals with MDA-MB-468 breast. Put plainly: DTP human tumour cell line panel, 48 h.
For `O=C1C(N2CCN(CCOCCO)CC2)=C(Cl)C(=O)c2ncccc21`, the GI50 is 19300 nM and the TGI amounted to 39300 nM. With `COC(=O)CCC(=O)NC1=C(Nc2ccccc2)C(=O)c2ccccc2C1=O`, the GI50 was 3040 nM and the total growth inhibition concentration (TGI) stood at 10500 nM. Regarding `COc1ccc2nc(C)cc(Sc3nc4ccccc4s3)c2c1`, the GI50 is 2200 nM and the TGI amounted to 11400 nM. Take `NC1=NC(SCc2ccccc2CCl)c2ncn(Cc3ccccc3CCl)c2N1` (stereo unspecified): the GI50 was 1710 nM and the TGI worked out at 3720 nM. For `O=C1OCC2=C1C(c1cccc(C(F)(F)F)c1)c1cc3c(cc1N2CCO)OCCO3` (stereo unspecified) the same measures were 1410 nM and more than 33300 nM. Take `Cc1c(Nc2nccc3cc(CN4CC[C@@H](O)C4)cnc23)cccc1-c1cccc(-c2nc3cc(CN4CC[C@@H](C(=O)O)C4)cc(C#N)c3o2)c1C`: the GI50 was 11200 nM and the TGI stood at 35200 nM.

`CN(C)CCN1C(=O)c2cccc3c(/C=C/CN4C(=O)c5cccc6cccc(c56)C4=O)ccc(c23)C1=O`: the GI50 is 14000 nM and the concentration for total growth inhibition (TGI) was found to be 34300 nM.

On to `CC(=O)c1c[nH]c2ccc(-c3ccnc(Nc4ccc(NC(=O)C5CCCC5)c(CN5CCOCC5)c4)n3)cc12`, for which the GI50 was 21.9 nM and the total growth inhibition concentration (TGI) was 77.4 nM. Regarding `O=C1NC(=O)C(=Cc2cn(Cc3ccccc3)c3ccccc23)C(=O)N1`, the GI50 is 142 nM and the TGI came out at 390 nM. Regarding `COc1cc(F)c(F)cc1C(=O)c1cnc(NC2CCN(S(C)(=O)=O)CC2)nc1N`, the GI50 was 3650 nM and the TGI worked out at 10800 nM.

As for `CC(C)[P+](c1ccccc1)(c1ccccc1)c1ccccc1`, the GI50 was 1120 nM and the TGI stood at 10700 nM. Turning to `O=c1cc(-c2ccccc2)[nH]c2c1CCCC2`, the GI50 is 1570 nM and the TGI was determined as 4990 nM. As to `CC1=C(CO)C(=O)O[C@@H]([C@@H](C)[C@H]2CC[C@H]3[C@@H]4C[C@H]5O[C@]56[C@@H](O)C=CC(=O)[C@]6(C)[C@H]4CC[C@]23C)C1`, the GI50 is 278 nM and the TGI was found to be 1210 nM.

As to `COc1ccc(Nc2ncnc3ccc(-c4cncc(NS(C)(=O)=O)c4)cc23)cc1Cl`, the GI50 was 785 nM and the TGI came out at 3100 nM. On to `CN1CCN(Cc2ccc(NC(=O)c3cncc(C#Cc4cnc5ccc(NC6CCOCC6)nn45)c3)cc2C(F)(F)F)CC1`, for which the GI50 is 33.8 nM and 19.6 nM; the TGI was 222 nM and 67.2 nM.

In the case of `COc1ccc(C2NN=C3c4ccccc4CCC32)cc1` (stereo unspecified), the TGI is 41.6 nM.

As to `Nc1c(C(=O)c2cccc(C(O)CO)c2)cnn1-c1ccc(F)cc1` (stereo unspecified), the GI50 is more than 25000 nM and the TGI is more than 25000 nM.

As for `CC(C)C[C@H](NC(=O)Cn1cccc(CNC(=O)c2ccccc2)c1=O)B(O)O`, the GI50 is 139 nM and the TGI was found to be 716 nM. As for `COC1=C(OC)C(=O)C(C/C=C(\C)CC/C=C(\C)CC/C=C(\C)CC/C=C(\C)CC/C=C(\C)CC/C=C(\C)CC/C=C(\C)CC/C=C(\C)CC/C=C(\C)CCC=C(C)C)=C(C)C1=O`, the GI50 was more than 100000 nM and the TGI was more than 100000 nM. As for `COc1cc2nc(N3CCC[C@H](NC4=CC(=O)c5ccccc5C4=O)C3)nc(N)c2cc1OC`, the GI50 was 1790 nM and the TGI was 3530 nM. Consider `O=C1NC(=O)C(c2cccc(Cl)c2)=C1Nc1ccc(Cl)c(C(=O)O)c1`, for which the GI50 is more than 25000 nM and the TGI was more than 25000 nM. For `O=C(Nc1ccc(-n2cc(-c3ccncc3)c(-c3ccc(O)c(Cl)c3)n2)cc1)c1ccc(Cl)c(C(F)(F)F)c1`, the GI50 is 2590 nM and the TGI came to 48400 nM.

As to `CCN(CC)CCCNCc1cc(-c2ccccc2)nc2cc(Cl)ccc12`, the GI50 was 1930 nM and the TGI was 3920 nM.

Consider `CCN1CCN(c2cc(C(=O)Nc3cccc(Nc4ccc5c(OC)cccc5n4)c3)cc(C(F)(F)F)c2)CC1`, for which the GI50 is 749 nM and the TGI is 4050 nM.

For `Nc1nc(Cl)nc2c1ncn2C1OC(CO)C(O)C1F` (stereo unspecified), the concentration for 50% growth inhibition (GI50) was 285 nM and the TGI turned out to be 891 nM.

Take `O=C(O)COc1ccc(OCC(=O)O)cc1`: the GI50 was 326 nM and the concentration for total growth inhibition (TGI) was 2090 nM.

Take `CN1CCN(Cc2ccc(NC(=O)c3[nH]ncc3Nc3ncnc4[nH]ccc34)cc2)CC1`: the GI50 was 247 nM and the TGI was 562 nM. For `Cc1nn(C)c2ncnc(N/N=C/c3cccc(O)c3O)c12` the same measures were 2170 nM and 6530 nM.

As to `CN1CCN(C(=O)c2ccc(NC(=O)Nc3ccc(-c4nc(N5CCOCC5)c5cccn5n4)cc3)cc2)CC1`, the GI50 was 21 nM and the TGI was 77 nM.

With `CN1CCN(CCCOc2ccc3nc(Nc4ccc(F)c(F)c4)ccc3c2)CC1`, the GI50 is 1370 nM and the TGI worked out at 4360 nM. In the case of `Cc1cc(=O)[nH]c(N/N=C/c2ccccc2O)n1`, the GI50 is 3030 nM and the concentration for total growth inhibition (TGI) stood at 46900 nM.
